From US20250034139A1, “AMINE COMPOUNDS HAVING ANTI-INFLAMMATORY, ANTIFUNGAL, ANTIPARASITIC, AND ANTICANCER ACTIVITY” (PHARMA CINQ, LLC, priority 2013, published 2025)
Where two headings read alike, the source gives them in different places.

Legend:
[1] = system: C. neoformans (serotype A) phagocytosed by THP-1-derived macrophages; test: Example M: phagocytosed Cryptococcus neoformans antifungal screen in THP-1-derived macrophages; type: cell-based; details: for inhibition of fungal growth after phagocytosis and lysis, in words: 0.5, 1 or 2 μM; for IC50: after macrophage phagocytosis and lysis
Procedure: Two concentrations of macrophages (1×10^5 and 2×10^5/well) and a high concentration of C. neoformans (4×10^6/well) (MOI values of 40 and 20 respectively) were tested in this experiment.
THP-1 cells were adjusted to 5×10^5/ml or 1×10^6/ml in cRPMI+PMA
200 μl was transferred to a flat-bottomed 96-well dish (1×10^5 and 2×10^5/well) (48 hrs at 37 C) Media was removed and fresh cRPMI+PMA added (further 24 hrs at 37 C)
C. neoformans cells in DPBS were opsonized with human serum (60 mins at 30 C)
The opsonized yeast was washed (DPBS) and resuspended at 1×10^7/ml or 2×10^7/ml in cRPMI. 100 μl added to macrophage plate (1×10^6 and 2×10^6/well) (4 hrs at 37 C) washed ×4 with DPBS 100 μl of cRPMI was added to each well (18 hrs at 37 C) Compound AC was added to some wells. Media was removed, no wash, 25 μl 0.05% Triton X-100 added to lyse cells (3 mins RT rocking) 125 μl YPD broth was added and the plate incubated (24 hrs at 30 C then 24 hrs at 37 C) C. neoformans growth was determined on a Spectrophotometer (600 nm) after 24 and 48 hours
THP-1 cells (p15) grown in cRPMI [RPMI (Lonza 12-115F) plus 10% ΔFBS (Lonza DE14-701F)] were counted on a hemacytometer. Cells were spun at 1,800 rpm, RT for 5 mins, supernatant aspirated, pellet disturbed then adjusted to 5.0×10^5/ml and 1.0×10^6/ml in cRPMI supplemented with 0.2 μg/ml phorbol 12-myristate 13-acetate (PMA) (1 mg/ml in DMSO Sigma P8139). 200 μl aliquots of each cell concentration were transferred to […] (half a plate) of a flat-bottomed 96-well dish (1×10^5 and 2×10^5/well) and placed in a 37 C incubator for 48 hours, media was then removed and 200 μl of fresh cRPMI+PMA added. The plate was incubated for an additional 24 hours at 37 C then processed for yeast uptake.
In parallel to macrophage preparation, C. neoformans cells were grown from a single colony in 20 ml YPD broth at 30 C overnight. Absorbance of 1:10 dilution of the overnight (ON) culture gave 0.89 OD at 600 nm. Estimated concentration of this stock was 4×10^8 cells/ml (2×10^8 cells/ml gave an OD 600 nm of 0.426 in an earlier study Cryptococcus macrophage development plate 3 ML113012). The cells were washed with DPBS once and resuspended in 2 ml DPBS. 230 μl of this stock (˜60×10^7 cells) was brought up to 500 μl with DPBS in an Eppendorf tube. For opsonization, 500 μl of human serum (SIGMA S7023) was added and the tube incubated at 30 C for 60 mins with orbital shaking. […] A 1:200 dilution of cells was counted (4.25×10^6/ml), equivalent to 8.5×10^8/ml for the 1× stock. 470 μl of the 1× stock was brought up to 10 ml with cRPMI for a final concentration of 4×10^7/ml.
Media was aspirated from the prepared macrophage plate and 100 μl of the opsonized fungal cell suspension added to the wells. Media without yeast was added to triplicate wells for each macrophage concentration to provide background readings. Three empty wells (no macrophages) were seeded with fungus to serve as the wash control. The plates were then incubated at 37 C for 4 hours then washed 4 times with DPBS (plates were shakes briefly after addition of DPBS to increase wash efficiency). 144 μl of cRPMI was added to each well and 6 μl of 12.5 μM, 25 μM and 50 μM stocks of compounds AM, BM, AH, and AC added in triplicate for final concentrations of 0.5 μM, 1 μM or 2 μM. The plate was incubated at 37 C, 5% CO2 for 18 hours. Media was removed, 25 μl of 0.05% Triton X-100 (SIGMA T-9284) in DPBS was added to each well and the plate rocked at RT for 3 min, to lyse the cells. 125 μl YPD broth (KD Medical YLF-3260) was then added to each well and the plate placed in a 30 C incubator. C. neoformans cell growth was determined by measuring absorbance at 600 nm on a Spectrophotometer (Spectra Max Plus using program SoftMax Pro) after […].

[2] = system: imiquimod-induced dermatitis; details: for Ear thickness, Mean ± SEM: imiquimod-treated mice; for PASI Score, Mean ± SEM: scale 0-12
Procedure: Topical imiquimod (IMQ), a toll-like receptor agonist, has been established as a model of Inflammatory skin diseases including psoriasis and atopic dermatitis. Dermal inflammatory changes and gene expression in mice treated with topical imiquimod mimic human psoriasis and dermatitis (van der Fits et al., 2009; Swindell et al., 2011). The effect of a set of compounds of the invention were tested in a mouse model of imiquimod-induced dermatitis, with topical tacrolimus and dexamethasone as comparators for assessing safety and efficacy relative to standard agents used to treat dermatitis in humans.
Commercial 0.1% tacrolimus ointment (ProTopic™[…]) was also used as an active comparator. Petrolatum containing 10% ethanol was used as a control treatment.
Female Balb/C mice (8 weeks old) were randomized and divided into groups of 5 animals each. Polyethylene collars were affixed to the mice to prevent them from easily scratching their ears. 5% imiquimod was applied to both ears of each mouse (20 microliters per ear) daily for 5 days, and then every other day for the full duration of the study. […] On day 7 after initiation of imiquimod, treatment with topical agents was started. Both ears of each mouse were treated with test ointments, with one compound per mouse.
Ear thickness and PASI assessments (Psoriasis Area and Severity Index, a standard psoriasis scoring system) were recorded twice per week throughout the study. The PASI score comprises the sum of evaluations of swelling, erythema and scaling on scales from 0 to 4; the maximum PASI score is 12, and the minimum, in unaffected skin, is 0).

[3] = Cryptococcus neoformans, read-out: IC50 value (μM) for inhibition of fungal growth, 1 × 10^5 macrophages
[4] = Cryptococcus neoformans, read-out: IC50 value (μM) for inhibition of fungal growth, 2 × 10^5 macrophages
[5] = topical ointment 0.06% active drug (dexamethasone 0.03%, tacrolimus 0.1%)

In the case of `CCCCOCCCCCCCCCCNc1ccnc2ccccc12` [AM, N-(10-Butoxydecyl)quinolin-4-amine], the “inhibition of fungal growth after phagocytosis and lysis, in words” value (shortened to “inhibition of fungal growth”) [1] is reported as “clear dose dependent inhibition of fungal growth after phagocytosis and lysis”, the IC50 [1, 3] is reported as 1.13 µM and the IC50 [1, 4] is reported as 0.85 µM.
In the case of `c1ccc(Oc2cccc(CNc3ncnc4ccccc34)c2)cc1` [BM, N-(3-Phenoxybenzyl)quinazolin-4-amine], the “inhibition of fungal growth” value [1] is reported as “clear dose dependent inhibition of fungal growth after phagocytosis and lysis”, the IC50 [1, 3] is reported as 1.8 µM and the IC50 [1, 4] is reported as 1.31 µM. For the same compound, the “Ear thickness, Mean ± SEM” value [2, 5] was 0.577 ± 0.019, the “Body Weight (mean ± SEM), Final” value ([2]; mouse, in vivo) was 20.9 ± 0.6 g and the “Body Weight (mean ± SEM), Initial” value ([2]; mouse, in vivo) was 20.8 ± 0.7 g. For the same compound, the “D BW (g)” value ([2]; mouse, in vivo) was “+0.1 g” and the “PASI Score, Mean ± SEM” value [2, 5] was 9.250 ± 0.183.
With `COc1ccc(OCCCCCCCCNc2ncnc3ccccc23)cc1` [AE, N-[8-(4-Methoxyphenoxy)octyl]quinazolin-4-amine] the “Ear thickness, Mean ± SEM” value [2, 5] was 0.846 ± 0.023, the “Body Weight (mean ± SEM), Final” value ([2]; mouse, in vivo) was 21.3 ± 0.4 g and the “Body Weight (mean ± SEM), Initial” value ([2]; mouse, in vivo) was 20.9 ± 0.5 g. The “D BW (g)” value ([2]; mouse, in vivo) was “+0.4 g” and the “PASI Score, Mean ± SEM” value [2, 5] was 11.550 ± 0.281.
`CCCCCCOc1cccc(CNc2ccnc3ccccc23)c1` [Compound AC, N-[3-(Hexyloxy)benzyl]quinolin-4-amine] was tested, and the “inhibition of fungal growth” value [1] was “clear dose dependent inhibition of fungal growth after phagocytosis and lysis”, the IC50 [1, 3] was 1.29 µM and the IC50 [1, 4] was 1.35 µM. The “Ear thickness, Mean ± SEM” value [2, 5] was 0.501 ± 0.030, the “Body Weight (mean ± SEM), Final” value ([2]; mouse, in vivo) was 21.3 ± 0.6 g and the “Body Weight (mean ± SEM), Initial” value ([2]; mouse, in vivo) was 21.1 ± 0.7 g. For the same compound, the “D BW (g)” value ([2]; mouse, in vivo) was “+0.2 g” and the “PASI Score, Mean ± SEM” value [2, 5] was 7.150 ± 0.221.
With `CCCCCCCCCCNc1ncnc2ccccc12` [Compound AH, N-(Decyl)quinazolin-4-amine] the “inhibition of fungal growth” value [1] was “clear dose dependent inhibition of fungal growth after phagocytosis and lysis”, the inhibition at 2 µM ([1]; Cryptococcus neoformans, Macrophage, at 2 μM, after phagocytosis, read-out: inhibition of the fungal growth) was ~100% and the IC50 [1, 3] was 0.29 µM. It also gave an IC50 [1, 4] of 0.25 µM.
With `c1ccc(Oc2cccc(CNc3ccnc4ccccc34)c2)cc1` [AF, N-(3-Phenoxybenzyl)quinolin-4-amine] the “Ear thickness, Mean ± SEM” value [2, 5] was 0.355 ± 0.005, the “Ear thickness, Mean ± SEM” value ([2]; topical ointment AF 0.6%) was 0.390 ± 0.008 and the “D BW” value ([2]; mouse, in vivo) was -0.4 g. The “D BW (g)” value ([2]; mouse, in vivo) was “+0.4 g”, the “Hair growth on the imiquimod-affected head area, in words” value ([2]; mouse, in vivo) was “hair growth was maintained” and the “PASI Score, Mean ± SEM” value [2, 5] was 3.575 ± 0.158. For the same compound, the “PASI Score, Mean ± SEM” value ([2]; topical ointment AF 0.6%) was 4.875 ± 0.155.
